# Measured values taken from patent US5559103A, “Bivalent sialyl X saccharides” (Cytel Corporation, priority 1994, dated 1996).
# pIC50: −log10 of the molar value. Several values for one entry are separate records, joined by “and”; a condition that tells them apart may be missing. Equal values may be shown once.
# What was measured:
# [1] = target: T1, recombinant soluble E-selectin (Homo sapiens, UniProt P16581); assay: Recombinant soluble E-selectin/HL-60 cell adhesion assay; assay type: cell-based; settings: for Ratio (50 percent binding value for the standard Compound Z divided by the 50 percent binding value for the assayed sample) / IC50 value ratio of SLe^x to that of the compound: E-Selectin Cell Adhesion Assay, HL-60 cells; for Ratio (50 percent binding value for the standard Compound Z divided by the 50 percent binding value for the assayed sample): relative to Compound Z; for IC50 value ratio of SLe^x to that of the compound: relative to SLe^x (Table 1 value divided by 0.76); for inhibition of HL-60 cell adhesion to recombinant soluble E-selectin-coated plates, activity order: FIG. 1, range of inhibitor concentrations (mM)
# T1 construct: The 3'-amplimer inserted the termination codon TGA after amino acid number 527 of the mature E-selectin; made in house
# T1 sequence (P16581 22-548 limits assumed): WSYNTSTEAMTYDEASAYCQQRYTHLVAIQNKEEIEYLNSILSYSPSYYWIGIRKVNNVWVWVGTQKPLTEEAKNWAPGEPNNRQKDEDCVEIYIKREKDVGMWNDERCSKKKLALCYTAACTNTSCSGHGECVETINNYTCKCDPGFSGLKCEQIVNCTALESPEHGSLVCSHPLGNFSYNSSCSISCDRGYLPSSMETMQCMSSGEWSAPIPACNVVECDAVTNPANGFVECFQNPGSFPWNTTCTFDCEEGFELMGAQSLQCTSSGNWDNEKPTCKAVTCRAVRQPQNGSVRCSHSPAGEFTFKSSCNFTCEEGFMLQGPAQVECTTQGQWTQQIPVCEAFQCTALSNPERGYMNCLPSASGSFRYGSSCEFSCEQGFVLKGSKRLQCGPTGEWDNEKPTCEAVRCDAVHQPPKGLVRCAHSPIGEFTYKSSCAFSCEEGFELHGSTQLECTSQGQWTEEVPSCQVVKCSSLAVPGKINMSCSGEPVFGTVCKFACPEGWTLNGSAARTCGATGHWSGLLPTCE
# Procedure: A modified recombinant soluble E-selectin/HL-60 cell adhesion assay was developed to provide a simple and highly reproducible method with which to compare the E-selectin blocking potential of a bivalent SLe^x saccharide compound. In this assay, recombinant soluble E-selectin (rELAM) is bound to the plastic surface of a 96 well ELISA plate. Dilutions of bivalent SLe^x saccharide compounds to be assayed are added to the wells followed by HL-60 cells which bear the ligand for E-selectin. The cells are allowed to adhere to the E-selectin coated assay plate and the nonadherent cells are removed by washing the plate with an automated plate washer. Bound cells are quantitated by measuring the cellular enzyme myeloperoxidase. The molar concentration of assayed bivalent SLe^x saccharide required to achieve 50 percent inhibition of control adhesion such as that inhibited by free SLe^x or an analog is used to compare the contemplated analogs for potency.
# rELAM (recombinant modified ELAM-1) affinity purified, prepared as follows below. Each batch of rELAM was tested functionally to determine the appropriate concentration for use in the assay. A batch was titrated over a range of 1-5 μg/mL using inhibition by Compound Z (described hereinafter) as the standard. Small aliquots were then prepared, quick frozen in a dry-ice acetone bath and stored at -70° C. Each aliquot was opened only one time and then discarded or saved for use in other types of assays.
# The soluble form of E-selectin (rELAM or sol-E-selectin) used here was engineered by deleting the transmembrane domain from the cDNA. This recombinant cDNA was cloned into a mammalian expression vector pCDNA1 [a derivative of pCDM8; Seed, Nature, 329:840 (1987)] that contains the chimeric cytomegalovirus/human immunodeficiency virus promoter. When introduced into the adenovirus-transformed human kidney cell line 293, expression of the CMV promoter is efficiently activated by the E1 gene products by a mechanism that has not been fully delineated. The pCDNA1-sol-E-selectin construction was introduced, via calcium phosphate-mediated gene transfer, into 293 cells and a stable cell line expressing high levels of sol-E-selectin was generated. The sol-E-selectinproduced by these cells was purified by immunoaffinity chromatograph on an anti-E-selectin monoclonal antibody Protein-A Sepharose column.
# A 1.67 Kbp DNA fragment encoding a truncated structural gene for E-selectin was isolated by polymerase chain reaction (PCR) amplification of cDNA derived from messenger RNA that was isolated from IL-1-activated human endothelial cells. The 5'-amplimer inserted a unique ClaI restriction site 28 nucleotides upstream from the initiation codon of the E-selectin structural gene. The 3'-amplimer inserted the termination codon TGA after amino acid number 527 of the mature E-selectin, followed by a unique XhoI restriction site. The carboxy-terminus of sol-E-selectin is located at the carboxy terminus of the sixth consensus repeat element, thereby deleting the transmembrane domain. The 1.67 Kbp PCR fragment was codigested with ClaI and XhoI restriction endonucleases and sub-cloned into the ClaI and XhoI restriction sites of the cloning vector pBluescript II, providing vector pBS11-sol-E-selectin. Expressed soluble-E-selectin is 527 amino acid residues in length and contains 11 potential N-glycosylation sites.
# 1. Assays were carried out in 96-well Immunolan 2 plates (Dynatech Laboratories, Inc., Chantilly, Va. catalog #011-0103655). The rELAM (sol-E-selectin) was diluted to the appropriate concentration for the current batch. For these assays, rELAM was used at 2.5 or 3.0 μg/mL in DPBS; with well coating being carried out at room temperature. Using a multichannel pipette, 50μl per well were added to the following wells of one ELISA plate: E1-E6, F1-F6, and G1-G6. DPBS (50μl ) was added to wells H1, H2, and H3 for use as controls. This plate is referred to as the pretest plate. […]
# lung injury in rats = settings: Mulligan et al., cited from earlier work
# E-selectin = settings: monomeric; Nelson et al.; cited from earlier work
# P-selectin = settings: monomeric; Nelson et al.; cited from earlier work
# [2] = infusion, cobra venom-infused rats
SMILES,Ratio (50 percent binding value for the standard Compound Z divided by the 50 percent binding value for the assayed sample) [1],IC50 value ratio of SLe^x to that of the compound [1],"inhibition of HL-60 cell adhesion to recombinant soluble E-selectin-coated plates, activity order [1]",accumulation of neutrophils (lung injury in rats; [2]),lung injury (lung injury in rats; [2]),"pIC50 (lung injury in rats; protection against lung injury in rats, read-out: in vivo IC50 value)",binding to E-selectin (E-selectin),binding to P-selectin (P-selectin)
"CCO[C@@H]1O[C@H](CO[C@@H]2O[C@H](CO)[C@@H](O[C@@H]3O[C@H](CO)[C@H](O)[C@H](O[C@]4(C(=O)O)C[C@H](O)[C@@H](NC(C)=O)[C@H]([C@H](O)[C@H](O)CO)O4)[C@H]3O)[C@H](O[C@@H]3O[C@@H](C)[C@@H](O)[C@@H](O)[C@@H]3O)[C@H]2NC(C)=O)[C@H](O)[C@H](O[C@@H]2O[C@H](CO)[C@@H](O[C@@H]3O[C@H](CO)[C@H](O)[C@H](O[C@]4(C(=O)O)C[C@H](O)[C@@H](NC(C)=O)[C@H]([C@H](O)[C@H](O)CO)O4)[C@H]3O)[C@H](O[C@@H]3O[C@@H](C)[C@@H](O)[C@@H](O)[C@@H]3O)[C@H]2NC(C)=O)[C@H]1O [Compound 1, Ethyl 3,6-bis-O-[(ammonium 5-acetamido-3,5-dideoxy-α-D-glycero-D-galacto-2-nonulo-pyranosylonate)-(2→3)-β-D-galactopyranosyl-(1→4)-(α-L-fucopyranosyl-(1→3))-2-acetamido-2-deoxy-β-D-glucopyranosyl]-β-D-galactopyranoside]",3.8 and 2.67,3.5-5,the most active,–,–,–,–,–
"COC(=O)CCCCCO[C@@H]1O[C@H](CO[C@@H]2O[C@H](CO)[C@@H](O[C@@H]3O[C@H](CO)[C@H](O)[C@H](O[C@]4(C(=O)O)C[C@H](O)[C@@H](NC(C)=O)[C@H]([C@H](O)[C@H](O)CO)O4)[C@H]3O)[C@H](O[C@@H]3O[C@@H](C)[C@@H](O)[C@@H](O)[C@@H]3O)[C@H]2NC(C)=O)[C@H](O)[C@H](O)[C@H]1O[C@@H]1O[C@H](CO)[C@@H](O[C@@H]2O[C@H](CO)[C@H](O)[C@H](O[C@]3(C(=O)O)C[C@H](O)[C@@H](NC(C)=O)[C@H]([C@H](O)[C@H](O)CO)O3)[C@H]2O)[C@H](O[C@@H]2O[C@@H](C)[C@@H](O)[C@@H](O)[C@@H]2O)[C@H]1NC(C)=O [Compound 20, 5-Methoxycarbonylpentyl 2,6-bis-O-[(5-acetamido-3,5-dideoxy-α-D-glycero-D-galacto-2-nonulo-pyranosylonic acid)-yl-(2→3)-β-D-galactopyranosyl-(1→4)-(α-L-fucopyranosyl-(1→3))-2-acetamido-2-deoxy-β-D-glucopyranosyl]-β-D-galactopyranoside]",2.67,about 3.5,–,–,–,–,–,–
"COC(=O)CCCCCO[C@@H]1O[C@H](CO[C@@H]2O[C@H](CO)[C@@H](O[C@@H]3O[C@H](CO)[C@H](O)[C@H](O[C@]4(C(=O)O)C[C@H](O)[C@@H](NC(C)=O)[C@H]([C@H](O)[C@H](O)CO)O4)[C@H]3O)[C@H](O[C@@H]3O[C@@H](C)[C@@H](O)[C@@H](O)[C@@H]3O)[C@H]2NC(C)=O)[C@H](O[C@@H]2O[C@H](CO)[C@@H](O[C@@H]3O[C@H](CO)[C@H](O)[C@H](O[C@]4(C(=O)O)C[C@H](O)[C@@H](NC(C)=O)[C@H]([C@H](O)[C@H](O)CO)O4)[C@H]3O)[C@H](O[C@@H]3O[C@@H](C)[C@@H](O)[C@@H](O)[C@@H]3O)[C@H]2NC(C)=O)[C@H](O)[C@H]1O [Compound 21, 5-Methoxycarbonylpentyl 4,6-bis-O-[(5-acetamido-3,5-dideoxy-α-D-glycero-D-galacto-2-nonulo-pyranosylonic acid)-yl-(2→3)-β-D-galactopyranosyl-(1→4)-(α-L-fucopyranosyl-(1→3))-2-acetamido-2-deoxy-β-D-glucopyranosyl]-β-D-galactopyranoside]",1.67,–,more active than Compound 20,–,–,–,–,–
"CC(=O)N[C@H]1[C@H]([C@H](O)[C@H](O)CO)O[C@@](O[C@H]2[C@@H](O)[C@@H](CO)O[C@@H](O[C@H]3[C@H](O[C@@H]4O[C@@H](C)[C@@H](O)[C@@H](O)[C@@H]4O)[C@@H](NC(C)=O)C(O)O[C@@H]3CO)[C@@H]2O)(C(=O)O)C[C@@H]1O (stereo partly shown) [SLe^x, NeuAcα2→3βGalβ1→4(Fucα1→3)GlcNAc]",0.76,–,–,reduced accumulation of neutrophils,reduced lung injury,~6.00,binds weakly,binds weakly
